Laboratory results taken from paper PMC10011747, “Targeting androgen receptor and the variants by an orally bioavailable Proteolysis Targeting Chimeras compound in castration resistant prostate cancer” (eBioMedicine, 2023).
Like-named read-outs stand apart in the source and are kept apart here.

Columns and labels:
CWR22Rv1 cells = experiment: alamarBlue cell viability, CWR22Rv1; format: cell-based; settings: Homo sapiens, CWR22Rv1, 168 h; 7 days treatment, normal hormone condition
Description: Cells were seeded in triplicate in 96-well plates 1 day prior to drug treatment for all assays. For viability test and IC50 assessment, the alamarBlue™ Cell Viability Reagent (Thermo Fisher Scientific) was added to cells 7 days after PROTAC treatment, followed by fluorescence detection as the manufacturer instructed. The IC50 was calculated by dose-inhibition regression. For proliferation monitoring, 2, 4, 6 and 8 days after PROTAC treatment (day 0), viable cells were detected by MTT Cell Proliferation Kit I (Sigma–Aldrich) according to the manufacturer's instructions. Cellular caspase activity was measured by Caspase-Glo 3/7 Assay System (Promega) 1 or 2 days after the drug treatment.

[1] = Pharmacokinetic analysis in BALB/c mice; format: in vivo, mouse; settings: for bioavailability: read-out: BA (bioavailability); for clearance: read-out: plasma clearance rate
Description: Six to eight-week-old male BALB/c (BALB/cAnNCrlBltw) mice weighing between 22 and 30 g were purchased from BioLASCO Taiwan Co., Ilan, Taiwan. In vivo PK analysis of the PROTAC compounds was performed with 2 mg/kg for intravenous injection (IV, n = 2), 10 mg/kg for intraperitoneal injection (IP, n = 3), and 10 or 30 mg/kg for oral (PO, n = 3) dosing route. Blood samples from the mice were collected using Microvette® CB 300 EDTA blood collection tubes by a lancet at 0.167 h (IV only), 0.5, 1, 2, 4, 7 and 24 h time points. The plasma was then subjected to LC-MS analysis to quantitate the drug concentration against calibration curves that were established with drug standards prepared in mice plasma.

[2] = male, BALB/c, mouse, plasma, IP, 10 mg/kg
[3] = male, BALB/c, mouse, plasma, PO, 30 mg/kg
[4] = male, BALB/c, mouse, plasma, intravenous, 2 mg/kg
[5] = male, BALB/c, mouse, plasma, ip, 10 mg/kg, 0-24 h
[6] = male, BALB/c, mouse, plasma, ip, 10 mg/kg, IP, 10 mg/kg, read-out: Cmax
[7] = male, BALB/c, mouse, plasma, PO, 10 mg/kg

Row | SMILES | IC50 (CWR22Rv1 cells) | Cmax ([1]; PO, 30 mg/kg) | AUC/Dose ([1]; PO, 30 mg/kg, 0-24 h) | Tmax [1, 2] | Tmax [1, 3] | bioavailability [1, 3] | clearance [1, 4] | AUC(0-t) [1, 5] | Cmax [1, 6] | AUC(0-t) ([1]; male, BALB/c, mouse, plasma, po, 30 mg/kg, 0-24 h) | Cmax ([1]; male, BALB/c, mouse, plasma, po, 30 mg/kg, PO, 30 mg/kg, read-out: Cmax) | AUC/Dose ([1]; intravenous, 2 mg/kg) | AUC/Dose ([1]; IP, 10 mg/kg, 0-24 h) | AUC/Dose ([1]; PO, 10 mg/kg, 0-24 h) | Tmax [1, 7] | bioavailability [1, 7] | AUC(0-t) ([1]; male, BALB/c, mouse, plasma, po, 10 mg/kg, 0-24 h) | Cmax ([1]; male, BALB/c, mouse, plasma, po, 10 mg/kg, PO, 10 mg/kg, read-out: Cmax)
1 | Cc1ncsc1-c1ccc(CNC(=O)[C@@H]2C[C@H](O)CN2C(=O)[C@@H](NC(=O)COCCCCOc2ccc(C3CCN(C4=Nn5c(nnc5C(F)(F)F)CC4)CC3)cc2)C(C)(C)C)cc1 [ITRI-90, (2S,4S)-1-((S)-3,3-dimethyl-2-(2-(4-(4-(1-(3-(trifluoromethyl)-7,8-dihydro-[1,2,4]triazolo[4,3-b]pyridazin-6-yl)piperidin-4-yl)phenoxy)butoxy)acetamido)butanoyl)-4-hydroxy-N-(4-(4-methylthiazol-5-yl)benzyl)pyrrolidine-2-carboxamide] | 4.13 ± 1.93 µM | 7056.67 ± 2594.81 ng/mL | 600.13 ± 263.33 h⋅kg⋅ng/mL/mg | 1.5 ± 0.7 h | 1.67 ± 0.58 h | 23% | 6.62 mL/min/kg | 25500 ± 13600 ng·h/mL | 3940 ± 1140 ng/mL | 18000 ng·h/mL | 7060 ng/mL |  |  |  |  |  |  | 
2 | Cc1ncsc1-c1ccc(CNC(=O)[C@@H]2C[C@H](O)CN2C(=O)[C@@H](NC(=O)COCCCCCCOc2ccc(C3CCN(C4=Nn5c(nnc5C(F)(F)F)CC4)CC3)cc2)C(C)(C)C)cc1 [ITRI-125, (2S,4S)-1-((S)-3,3-dimethyl-2-(2-(6-(4-(1-(3-(trifluoromethyl)-7,8-dihydro-[1,2,4]triazolo[4,3-b]pyridazin-6-yl)piperidin-4-yl)phenoxy)hexyloxy)acetamido)butanoyl)-4-hydroxy-N-(4-(4-methylthiazol-5-yl)benzyl)pyrrolidine-2-carboxamide] | 6.92 ± 6.23 µM |  |  |  |  |  | 5.68 mL/min/kg |  |  |  |  | 2839.9 ± 36.7 ng·h/mL |  |  |  |  |  | 
3 | O=C1CCC(N2Cc3c(NC(=O)COCCCCOc4ccc(C5CCN(C6=Nn7c(nnc7C(F)(F)F)CC6)CC5)cc4)cccc3C2=O)C(=O)N1 (stereo not shown) [ITRI-126, N-(2-(2,6-dioxopiperidin-3-yl)-1-oxoisoindolin-4-yl)-2-(4-(4-(1-(3-(trifluoromethyl)-7,8-dihydro-[1,2,4]triazolo[4,3-b]pyridazin-6-yl)piperidin-4-yl)phenoxy)butoxy)acetamide] | 0.071 ± 0.017 µM |  |  | 1.5 ± 0.5 h |  |  | 24.7 mL/min/kg | 2340 ± 263 ng·h/mL | 706 ± 222 ng/mL |  |  |  | 234.2 ± 26.3 h⋅kg⋅ng/mL/mg | 20.4 ± 8.6 h⋅kg⋅ng/mL/mg | 0.7 ± 0.2 h | 4.6 ± 1.9% | 204 ± 85.9 ng·h/mL | 95.7 ± 47.1 ng/mL
